Measurements taken from patent US20090247766A1, “Substituted Nitrogen Heterocycles and Synthesis and Uses Thereof” (University of Southern California, priority 2008, published 2009).
Values after ≈ are worked out from the molar mass of the structure shown. Values joined by “and” are separate entries in the source; they are usually repeats but may differ in a detail not shown here. Equal entries are not always repeated.

Tests used:
Type in all cases: cell-based
Skov-3 = experiment: MTT cytotoxicity assay, Skov-3; conditions: replicate values
Method: (§1) IC50 was determined using an MTT assay.

HCT116 p53 +/+ = experiment: MTT cytotoxicity assay, HCT116 p53 +/+; conditions: replicate values
Method: as §1

H29 = experiment: MTT cytotoxicity assay, H29; conditions: replicate values
Method: as §1

HCT116 p53 −/− = experiment: MTT cytotoxicity assay, HCT116 p53 -/-; conditions: replicate values
Method: as §1

MCF7 = experiment: MTT cytotoxicity assay, MCF7; conditions: replicate values
Method: as §1

MDA-MB 435 = experiment: MTT cytotoxicity assay, MDA-MB 435
Method: For example, compound 1-[5-chloro-2-(4-methoxy-phenyl)-3-trifluoromethyl-indol-1-yl]-ethanone, prepared under Example 2 of the present application, has shown potential anticancer activity against several cancer cell lines.
as §1

[1] = Homo sapiens, HCT-116, MTT assay

Compound: COc1ccc(-c2c(C(F)(F)F)c3cc(Cl)ccc3n2C(C)=O)cc1 [Example 2, 1-[5-chloro-2-(4-methoxy-phenyl)-3-trifluoromethyl-indol-1-yl]-ethanone]
- IC50 (Skov-3; Homo sapiens, SK-OV-3, MTT assay): 15.8 mg/L (≈ 43 µM)
- IC50 Skov-3 (Skov-3; MTT assay): 17.2 mg/L (≈ 46.8 µM)
- IC50 (HCT116 p53 +/+; [1]): 14.5 mg/L (≈ 39.4 µM)
- IC50 HCT116 p53 +/+ (HCT116 p53 +/+; MTT assay): 15.4 mg/L (≈ 41.9 µM)
- IC50 (H29): 9.6 mg/L (≈ 26.1 µM)
- IC50 H29 (H29): 9.8 mg/L (≈ 26.6 µM)
- IC50 (HCT116 p53 −/−; [1]): 13.2 mg/L (≈ 35.9 µM)
- IC50 HCT116 p53 −/− (HCT116 p53 −/−; MTT assay): 8.4 mg/L and 9.4 mg/L and 9.2 mg/L
- IC50 (MCF7; Homo sapiens, MCF7, MTT assay): 18.8 mg/L (≈ 51.1 µM)
- IC50 MCF7 (MCF7; MTT assay): 18 mg/L (≈ 48.9 µM)
- cytotoxicity against the MDA MB-435 cell line (MDA-MB 435; 10 micromolar (μM) concentration, MTT assay): 80.8%
- IC50 (MDA-MB 435; Homo sapiens, MDA-MB-435, MTT assay, replicate values): 11.1 mg/L (≈ 30.2 µM)
- IC50 MDA-MB 435 (MDA-MB 435; MTT assay, replicate values): 8.5 mg/L and 7.4 mg/L and 9.6 mg/L
